EC50 data for 15 compounds are collected here from patent publication US20070213301A1 (ACHILLION PHARMACEUTICALS, INC., priority 2006, published 2007).

The experiment concerns HCV replicon. Briefly: HCV replicon replication assay (NPTII ELISA). In kind it is cell-based, Hepatitis C virus (Huh-7 cells). Particulars: Hepatitis C virus, Huh-7, 72 h, inhibition of HCV replicon replication in Huh-7 HCV replicon-containing cells, three days incubation, NPT level by ELISA; read-out: EC50. In a few lines:
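Huh-7 cells carrying a Bartenschlager NPTII (neo) HCV replicon, treated 3 days at 37 °C with compound, generally 6 concentrations from 10 to 0.03 micromolar, in equal DMSO across wells. NPTII level, proportional to replication, read by capture ELISA on methanol:acetone-fixed cells; interferon alpha positive control; toxicity scored visually or by MTS.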
On the technique in general: In antiviral work, replicon cells carry a viral genome segment that copies itself.
As to `NC(=O)N(c1ccc(OCC2CCCCC2)c(F)c1)c1nc(-c2ccc(F)c(F)c2)cs1` [Compound 120, 1-(4-(cyclohexylmethoxy)-3-fluorophenyl)-1-(4-(3,4-difluorophenyl)thiazol-2-yl)urea], the EC50 was < 1000 nM.

Turning to `CCCCCCOc1ccc(N(C(N)=O)c2nc(-c3ccc4c(c3)NC(=O)CO4)cs2)cc1` [Compound 121, 1-(4-(hexyloxy)phenyl)-1-(4-(3-oxo-3,4-dihydro-2H-benzo[b][1,4]oxazin-6-yl)thiazol-2-yl)urea], the EC50 is 1000 to 10000 nM.

Consider `CCCCCCOc1ccc(N(C(N)=O)c2nc(-c3ccc(F)cc3)cs2)cc1` [Compound 122, 1-(4-(4-fluorophenyl)thiazol-2-yl)-1-(4-(hexyloxy)phenyl)urea], for which the EC50 was < 1000 nM.

As for `CCCCCCOc1ccc(N(C(N)=O)c2nc(-c3ccccn3)cs2)cc1` [Compound 123, 1-(4-(hexyloxy)phenyl)-1-(4-(pyridin-2-yl)thiazol-2-yl)urea], the EC50 is < 1000 nM.

Take `CCCCCCOc1ccc(N(C(N)=O)c2nc(-c3ccc(F)c(F)c3)cs2)cc1` [Compound 124, 1-(4-(3,4-difluorophenyl)thiazol-2-yl)-1-(4-(hexyloxy)phenyl)urea]: the EC50 was < 1000 nM.

As to `CC(C)COc1ccc(N(C(N)=O)c2nc(-c3ccc(F)cc3)cs2)cc1C(F)(F)F` [Compound 125, 1-(4-(4-fluorophenyl)thiazol-2-yl)-1-(4-isobutoxy-3-(trifluoromethyl)phenyl)urea], the EC50 was < 1000 nM.

As to `CC(C)COc1ccc(N(C(N)=O)c2nc(-c3ccc(F)c(F)c3)cs2)cc1C(F)(F)F` [Compound 126, 1-(4-(3,4-difluorophenyl)thiazol-2-yl)-1-(4-isobutoxy-3-(trifluoromethyl)phenyl)urea], the EC50 is < 1000 nM.

As to `CCCCCOc1ccc2c(c1)[nH]c(=O)n2-c1nc(-c2cccnc2)cs1` [Compound 127, 5-(pentyloxy)-1-(4-(pyridin-3-yl)thiazol-2-yl)-1H-benzo[d]imidazol-2(3H)-one], the EC50 was 1000 to 10000 nM.

Take `CCCCCOc1ccc2c(c1)[nH]c(=O)c(=O)n2-c1nc(-c2cccnc2)cs1` [Compound 128, 6-(pentyloxy)-1-(4-(pyridin-3-yl)thiazol-2-yl)quinoxaline-2,3(1H,4H)-dione]: the EC50 is > 10000 nM.

In the case of `CCCCCCCCOc1ccc(N(C(N)=O)c2nc(-c3cccnc3)cs2)cc1C(F)(F)F` [Compound 130, 1-(4-(octyloxy)-3-(trifluoromethyl)phenyl)-1-(4-(pyridin-3-yl)thiazol-2-yl)urea], the EC50 was < 1000 nM.

With `CCCCCCCCOc1ccc(N(C(=O)C(N)=O)c2nc(-c3cccnc3)cs2)cc1C(F)(F)F` [Compound 131, N1-(4-(octyloxy)-3-(trifluoromethyl)phenyl)-N1-(4-(pyridin-3-yl)thiazol-2-yl)oxalamide], the EC50 is < 1000 nM.

For `CCCCOc1ccc(N(C(N)=O)c2nc(-c3ccc(C)nc3)cs2)cc1C(F)(F)F` [Compound 132, 1-(4-butoxy-3-(trifluoromethyl)phenyl)-1-(4-(6-methylpyridin-3-yl)thiazol-2-yl)urea], the EC50 was < 1000 nM.

On to `CCCCOc1ccc(N(C(N)=O)c2nc(-c3ccc(O)c(C(N)=O)c3)cs2)cc1C(F)(F)F` [Compound 133, 5-(2-(1-(4-butoxy-3-(trifluoromethyl)phenyl)ureido)thiazol-4-yl)-2-hydroxybenzamide], for which the EC50 is < 1000 nM.

Take `CCCCOc1ccc(N(C(N)=O)c2nc(-c3ccc4c(c3)NC(=O)CO4)cs2)cc1C(F)(F)F` [Compound 134, 1-(4-butoxy-3-(trifluoromethyl)phenyl)-1-(4-(3-oxo-3,4-dihydro-2H-benzo[b][1,4]oxazin-6-yl)thiazol-2-yl)urea]: the EC50 was 1000 to 10000 nM.

`CCCCOc1ccc(N(C(N)=O)c2nc(-c3ccc(F)cc3)cs2)cc1C(F)(F)F` [Compound 135, 1-(4-butoxy-3-(trifluoromethyl)phenyl)-1-(4-(4-fluorophenyl)thiazol-2-yl)urea]: the EC50 is < 1000 nM.

As a reminder, the EC50 is the concentration that produces a half-maximal response.
